Test system: PBMCs
Assay: PBMC culture with candidate peptides for 14 days, IFN-γ and IL-5 in supernatant by ELISA
Format: cell-based, human
Details: for IFN-γ/IL-5 ratio (geometric mean): peptide 10 μg/mL
Description: Measurement of antigen-specific T cell responses in the peripheral blood in humans differs depending on whether responses are high affinity interactions with foreign (viral) epitopes or lower affinity interactions involving recognition of self-antigens. […] Given that T cell responses directed against MAGE and IL-13Rα2 antigens also involve T cells with low affinity to these self-antigens, antigen-specific responses were quantified based on cytokine secretion, as recently described in a phase I study of patients with MS (Viglietta V, et al: Neurology 2008, 71(12):917-924). Cytokine production was quantified by ELISA, defining a positive T cell response for each patient as the amounts of IFN-γ or IL-5 that were >50 pg/mL and two standard deviations above the mean cytokine levels secreted after stimulation of cells from that patient with negative control MBP peptide.
Twenty-five mL of blood from patients or healthy subjects was obtained under an IRB-approved protocol. All samples of blood from patients were taken at the time of surgery. […] All tumor-bearing patients received similar doses of steroids and anti-epileptic medications at the time of tumor debulking surgery prior to obtaining peripheral blood for these studies. T cell responses in patients with meningiomas controlled for influences of steroids on antigen responsiveness and cytokine balance. Tumor tissue was independently confirmed in all cases by formal pathological analysis. PBMCs were purified from heparinized blood by density gradient centrifugation using Ficoll-Hypaque (GE Healthcare Biosciences), and cells were then washed with PBS and viable cells quantified by trypan-blue staining.
Freshly isolated PBMCs were plated at 2×10^5 cells/well in 200 μl of serum-free X-VIVO15 (X15) media (Lonza) in 96-well round-bottom cell culture plates. Candidate peptides, in addition to a negative control peptide derived from MBP were added at a concentration of 10 μg/mL and anti-CD3 mAb was added at a concentration of 1 μg/mL. Six T cell cultures were established for each condition in each subject, and 100 IU/ml of IL-2 was added on the following day. Plates were incubated at 37° C. and 5% CO2 for 14 days, with media changed as needed, and the supernatant was harvested to evaluate T cell responses (cytokines) induced by each condition using ELISA. In a limited number (n=3) of patients, cytokine production was assessed after both 7 and 14 days. […] An IFN-γ ELISPOT assay was performed as previously described (Lv H, Havari E, et al: J Clin Invest, 121(4):1561-1573).
To detect T helper cell responses directed against the candidate peptides, IFN-γ and IL-5 were measured by ELISA using commercially available kits supplied by BD bioscience. IFN-γ was used as a prototypic Th1 cytokine and IL-5 was chosen as a prototypic cytokine released by Th2 cells because unlike IL-4 there would be no potential consumption by antigen-specific T cells in the culture conditions (Kourilsky P, Truffa-Bachi P: Trends Immunol 2001, 22(9):502-509).

Sequence	positive wells among 6 primary T cell responses (IFN-γ or IL-5 ELISA) (Healthy Subject 1)	positive wells among 6 primary T cell responses (IFN-γ or IL-5 ELISA) (Healthy Subject 4)	positive wells among 6 primary T cell responses (IFN-γ or IL-5 ELISA) (Healthy Subject 5)	positive wells among 6 primary T cell responses (IFN-γ or IL-5 ELISA) (Healthy Subject 6)	positive wells among 6 primary T cell responses (IFN-γ or IL-5 ELISA) (Meningioma 5)	positive wells among 6 primary T cell responses (IFN-γ or IL-5 ELISA) (Meningioma 6)	positive wells among 6 primary T cell responses (IFN-γ or IL-5 ELISA) (Primary GBM 1)	positive wells among 6 primary T cell responses (IFN-γ or IL-5 ELISA) (Primary GBM 2)	positive wells among 6 primary T cell responses (IFN-γ or IL-5 ELISA) (Primary GBM 3)	positive wells among 6 primary T cell responses (IFN-γ or IL-5 ELISA) (Primary GBM 4)	positive wells among 6 primary T cell responses (IFN-γ or IL-5 ELISA) (Primary GBM 5)	positive wells among 6 primary T cell responses (IFN-γ or IL-5 ELISA) (Primary GBM 7)	positive wells among 6 primary T cell responses (IFN-γ or IL-5 ELISA) (Primary GBM 8)	positive wells among 6 primary T cell responses (IFN-γ or IL-5 ELISA) (Recurrent GBM 1)	positive wells among 6 primary T cell responses (IFN-γ or IL-5 ELISA) (Recurrent GBM 3)	positive wells among 6 primary T cell responses (IFN-γ or IL-5 ELISA) (Recurrent GBM 5)	IFN-γ/IL-5 ratio (geometric mean) (healthy subjects)	IFN-γ/IL-5 ratio (geometric mean) (patients with primary GBMs)	IFN-γ/IL-5 ratio (geometric mean) (patients with recurrent GBMs)	positive wells among 6 primary T cell responses (IFN-γ or IL-5 ELISA) (Primary GBM 6)	other results
ILILVIFVTGLLLRK [IL-13Ra2351-365]	+ (+/++ cell=1-2 positive wells)	+++++ (+++++/++++++ cell=5-6 positive wells)	++ (+/++ cell=1-2 positive wells)	++ (+/++ cell=1-2 positive wells)	++ (+/++ cell=1-2 positive wells)	++++++ (+++++/++++++ cell=5-6 positive wells)	+++ (+++/++++ cell=3-4 positive wells)	++ (+/++ cell=1-2 positive wells)	++ (+/++ cell=1-2 positive wells)	+++ (+++/++++ cell=3-4 positive wells)	+ (+/++ cell=1-2 positive wells)	+++ (+++/++++ cell=3-4 positive wells)	+++++ (+++++/++++++ cell=5-6 positive wells)	++ (+/++ cell=1-2 positive wells)	+ (+/++ cell=1-2 positive wells)	++ (+/++ cell=1-2 positive wells)	2.0	0.3	0.05		positive wells among 6 primary T cell responses (IFN-γ or IL-5 ELISA) (Meningioma 3): + (+/++ cell=1-2 positive wells); IFN-γ/IL-5 ratio, recurrent GBM patients compared to primary GBM patients (P<0.05): significantly lower
LRKYRAKELVTKAEML [MAGE-A3121-136]	+++ (+++/++++ cell=3-4 positive wells)	+ (+/++ cell=1-2 positive wells)	+ (+/++ cell=1-2 positive wells)	+ (+/++ cell=1-2 positive wells)		+ (+/++ cell=1-2 positive wells)	++ (+/++ cell=1-2 positive wells)	++ (+/++ cell=1-2 positive wells)	++++ (+++/++++ cell=3-4 positive wells)	++ (+/++ cell=1-2 positive wells)	++++ (+++/++++ cell=3-4 positive wells)	++++ (+++/++++ cell=3-4 positive wells)	++ (+/++ cell=1-2 positive wells)	++ (+/++ cell=1-2 positive wells)	+ (+/++ cell=1-2 positive wells)	+ (+/++ cell=1-2 positive wells)	8.1	0.1	0.06	++ (+/++ cell=1-2 positive wells)	positive wells among 6 primary T cell responses (IFN-γ or IL-5 ELISA) (Healthy Subject 2): + (+/++ cell=1-2 positive wells); positive wells among 6 primary T cell responses (IFN-γ or IL-5 ELISA) (Healthy Subject 3): +++ (+++/++++ cell=3-4 positive wells); positive wells among 6 primary T cell responses (IFN-γ or IL-5 ELISA) (Meningioma 1): + (+/++ cell=1-2 positive wells); positive wells among 6 primary T cell responses (IFN-γ or IL-5 ELISA) (Meningioma 2): +++ (+++/++++ cell=3-4 positive wells); positive wells among 6 primary T cell responses (IFN-γ or IL-5 ELISA) (Recurrent GBM 4): + (+/++ cell=1-2 positive wells)
KVDELAHFLLRKYRAK [MAGE-A3112-127]	+++ (+++/++++ cell=3-4 positive wells)	++ (+/++ cell=1-2 positive wells)	+ (+/++ cell=1-2 positive wells)		+++ (+++/++++ cell=3-4 positive wells)	+ (+/++ cell=1-2 positive wells)		++ (+/++ cell=1-2 positive wells)	++ (+/++ cell=1-2 positive wells)	+ (+/++ cell=1-2 positive wells)	+++++ (+++++/++++++ cell=5-6 positive wells)	+++ (+++/++++ cell=3-4 positive wells)	++++ (+++/++++ cell=3-4 positive wells)	+ (+/++ cell=1-2 positive wells)	++ (+/++ cell=1-2 positive wells)	+ (+/++ cell=1-2 positive wells)	4.9	0.2	0.04	++ (+/++ cell=1-2 positive wells)	positive wells among 6 primary T cell responses (IFN-γ or IL-5 ELISA) (Healthy Subject 3): ++ (+/++ cell=1-2 positive wells); positive wells among 6 primary T cell responses (IFN-γ or IL-5 ELISA) (Recurrent GBM 2): + (+/++ cell=1-2 positive wells); positive wells among 6 primary T cell responses (IFN-γ or IL-5 ELISA) (Recurrent GBM 4): ++ (+/++ cell=1-2 positive wells)
LLRFWLPFGFILILV [IL-13Ra2341-355]		+ (+/++ cell=1-2 positive wells)	++++ (+++/++++ cell=3-4 positive wells)	+ (+/++ cell=1-2 positive wells)	++ (+/++ cell=1-2 positive wells)	+ (+/++ cell=1-2 positive wells)	+ (+/++ cell=1-2 positive wells)	++ (+/++ cell=1-2 positive wells)	+++++ (+++++/++++++ cell=5-6 positive wells)		++ (+/++ cell=1-2 positive wells)	+++ (+++/++++ cell=3-4 positive wells)	++++ (+++/++++ cell=3-4 positive wells)	++ (+/++ cell=1-2 positive wells)			1.6	0.3	0.02	++ (+/++ cell=1-2 positive wells)	positive wells among 6 primary T cell responses (IFN-γ or IL-5 ELISA) (Healthy Subject 2): + (+/++ cell=1-2 positive wells)
